Assay results reported in patent US20170007610A1, “NOVEL HETEROBICYCLIC COMPOUNDS AS KAPPA OPIOID AGONISTS” (priority 2014, published 2017).
Like-named read-outs stand apart in the source and are kept apart here.

How the values were obtained:
kappa opioid receptor [1] = target: T1, kappa opioid receptor (Mus musculus, UniProt P33534); experiment: Ex-vivo KOR agonistic activity, electrically stimulated mouse vas deferens (MVD) model
T1 construct: from tissue; host or cells: mouse vas deferens (male Swiss Albino mice)
Protocol: a) Ex-Vivo KOR Agonistic Activity Testing, Using Electrically Stimulated Mouse Vas Deferens (MVD) Model:
Ex-vivo, the kappa opioid receptor agonistic activity of test compounds were tested on the electrically stimulated mouse vas deferens (MVD) preparations (Henderson et al., Br. J. Pharmacol., 46, 764-766, 1972; Portoghese et al., Life Sci. 36, 801-805, 1985) and IC50 were determined. In general, vas deferentia were taken from male Swiss Albino mice (30-40 g) and suspended in 8 ml organ baths, at 31° C., containing modified Krebs-Henseleit solution, without magnesium sulphate. Each vas deferens was equilibrated for 45 min at 2.6 mN tension and then stimulated at supramaximal voltage with five 1 ms pulses, at a frequency of 0.1 Hz. Concentration-response curves were determined by cumulative dosing. Inhibitory Concentration, 50% (IC50) values were determined by Sigmoidal dose-response (variable slope) equation, using Prizm v 6.01. The kappa opioid receptor specificity was determined by rightward shift in concentration-response curves in presence of 1 nM norbinaltorphimine (norBNI), a selective kappa opioid receptor antagonist.

kappa opioid receptor [2] = target: T2, kappa opioid receptor (Homo sapiens, UniProt P41145); experiment: Invitro KOR agonistic activity, cAMP based functional assay; assay type: cell-based
T2 construct: grown in complete Ham's F-12 medium

ICR mice [3] = experiment: Acetic acid-induced writhing model; assay type: in vivo; settings: acetic acid induced pain model, oral or i.v. administration, writhes for 15 min; for ED50: Mus musculus, 0.25 h, read-out: In-vivo ED50
Protocol: (§1) All the animal experiments were carried out in ICR mice, bred in-house. Animals were housed in groups of 6 animals per cage, for a week, in order to habituate them to vivarium conditions (25±4° C., 60-65% relative humidity, 12:12 h light: dark cycle, with lights on at 7.30 am). All the animal experiments were carried out according to the internationally valid guidelines following approval by the ‘Zydus Research Center animal ethical committee’.
Following oral or i.v. administration of test compounds, mice are rested for 5 min before i.p. injection with 10 ml/kg of 0.6% v/v acetic acid in normal saline. […] A writhe is defined as a constriction of the abdominal area, often with extension of the hind legs. Percentage maximum possible effect (MPE) was calculated as below:
% MPE=100−[(No. of writhes in treated mice/No. of writhes in vehicle treated mice)]×100
ED50 dose is determined using GraphPad Prism.

ICR mice [4] = experiment: Assessment of CNS effects (spontaneous locomotion, sedation, catalepsy), threshold dose; assay type: in vivo; settings: lowest dose which shows pharmacodynamic effect (locomotion, sedation, catalepsy), oral or i.v.
Protocol: as §1
Assessment of CNS Effects of Test Compounds
Test compounds were dissolved in normal saline injected by oral or i.v., routes in ICR mice tail vein. […] The dose is scaled down or up if pharmacodynamic effect is present or absent respectively.

[5] = electrically stimulated mouse vas deferens preparation, cumulative dosing, read-out: Ex-vivo IC50

T1 sequence (P33534 whole entry): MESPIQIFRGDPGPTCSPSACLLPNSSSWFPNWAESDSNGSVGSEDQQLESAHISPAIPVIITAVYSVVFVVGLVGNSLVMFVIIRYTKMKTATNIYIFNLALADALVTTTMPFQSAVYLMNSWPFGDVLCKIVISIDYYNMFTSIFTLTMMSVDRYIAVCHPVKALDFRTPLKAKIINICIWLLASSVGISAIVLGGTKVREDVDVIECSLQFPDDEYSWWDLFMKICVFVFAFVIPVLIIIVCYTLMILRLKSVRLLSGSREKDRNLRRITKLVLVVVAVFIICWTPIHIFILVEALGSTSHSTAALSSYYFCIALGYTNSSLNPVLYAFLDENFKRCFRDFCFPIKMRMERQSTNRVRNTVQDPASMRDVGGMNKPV
T2 sequence (P41145 whole entry): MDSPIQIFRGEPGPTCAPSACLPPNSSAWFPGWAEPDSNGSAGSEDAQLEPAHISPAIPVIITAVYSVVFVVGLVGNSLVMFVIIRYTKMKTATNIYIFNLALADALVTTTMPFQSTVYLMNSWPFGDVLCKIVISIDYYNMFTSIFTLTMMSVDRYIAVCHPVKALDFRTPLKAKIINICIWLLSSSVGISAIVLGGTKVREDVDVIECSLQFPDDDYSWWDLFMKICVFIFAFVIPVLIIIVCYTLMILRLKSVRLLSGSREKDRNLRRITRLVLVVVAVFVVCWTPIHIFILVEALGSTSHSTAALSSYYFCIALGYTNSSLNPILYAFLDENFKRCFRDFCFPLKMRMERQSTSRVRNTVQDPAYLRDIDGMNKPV

| Compound | IC50 (kappa opioid receptor [1]) [nM] | EC50 (kappa opioid receptor [2]) [nM] | ED50 (ICR mice [3]) [mg/kg] | CNS TD (ICR mice [4]) [mg/kg] | IC50 (kappa opioid receptor [1]; [5]) [nM] | EC50 (kappa opioid receptor [2]; cAMP direct ELISA, forskolin 20 μM, agonist 20 minutes, read-out: In-vitro EC50) [nM] | In-vivo ED50 (ICR mice [3]) [mg/kg] |
| --- | --- | --- | --- | --- | --- | --- | --- |
| CN(C(=O)COc1ccc2c(c1)OCO2)[C@H](CN1CC[C@H](O)C1)c1cccc(NS(C)(=O)=O)c1 [Compound 57, 2-(benzo[d][1,3]dioxol-5-yloxy)-N-((S)-2-((S)-3-hydroxypyrrolidin-1-yl)-1-(3-(methylsulfonamido)phenyl)ethyl)-N-methylacetamide] | 27 | 0.961 | 1.9 | 60 |  |  |  |
| CN(C(=O)COc1ccc(NS(=O)(=O)N(C)C)c2c1CCCN2)[C@H](CN1CC[C@H](O)C1)c1ccccc1 [Compound 32, 2-((8-((N,N-dimethylsulfamoyl)amino)-1,2,3,4-tetrahydroquinolin-5-yl)oxy)-N-((S)-2-((S)-3-hydroxypyrrolidin-1-yl)-1-phenylethyl)-N-methylacetamide] | 0.49 | 0.013 | 4.7 | 100 |  |  |  |
| CN(C(=O)COc1ccc(NS(C)(=O)=O)c2ncccc12)[C@H](CN1CC[C@H](O)C1)c1cccc(N)c1 [Compound 43, N-((S)-1-(3-aminophenyl)-2-((S)-3-hydroxypyrrolidin-1-yl)ethyl)-N-methyl-2-((8-(methylsulfonamido)quinolin-5-yl)oxy) acetamide] | 1.6 | 0.006 | 2.1 | 30 |  |  |  |
| N-((S)-2-((S)-3-hydroxypyrrolidin-1-yl)-1-phenylethyl)- N-methyl-2-((8-sulfonamido)-1,2,3,4-tetrahydroquinolin- 5-yloxy)acetamide [Compound 37] |  |  |  |  | 0.3 | 0.013 | 6.2 |
| CN(C(=O)COc1ccc2c(c1)OCC2)[C@H](CN1CC[C@H](O)C1)c1ccccc1 [Compound 18, 2-((2,3-dihydrobenzofuran-6-yl)oxy)-N-((S)-2-((S)-3-hydroxypyrrolidin-1-yl)-1-phenylethyl)-N-methylacetamide] | 8.2 | 0.07 |  |  |  |  |  |
| CN(C(=O)COc1cccc2c1NCCC2)[C@H](CN1CC[C@H](O)C1)c1ccccc1 [Compound 11, N-((S)-2-((S)-3-hydroxypyrrolidin-1-yl)-1-phenylethyl)-N-methyl-2-(1,2,3,4-tetrahydroquinolin-8-yloxy)acetamide] | 1.6 | 0.004 |  |  |  |  |  |
| CN(C(=O)COc1ccc(NC(=O)CN)c2ncccc12)[C@H](CN1CC[C@H](O)C1)c1ccccc1 [Compound 33, 2-((8-(2-aminoacetamido)quinolin-5-yl)oxy)-N-((S)-2-((S)-3-hydroxypyrrolidin-1-yl)-1-phenylethyl)-N-methylacetamide] | 8.4 | 0.006 |  |  |  |  |  |
| CN(C(=O)COc1ccc2ccoc2c1)[C@H](CN1CC[C@H](O)C1)c1cccc([N+](=O)[O-])c1 [Compound 55, 2-(benzofuran-6-yloxy)-N-((S)-2-((S)-3-hydroxypyrrolidin-1-yl)-1-(3-nitrophenyl)ethyl)-N-methylacetamide] | 307 | 1.92 |  |  |  |  |  |
| CN(C(=O)COc1ccc2c3c1CCCN3S(=O)(=O)N2)[C@H](CN1CC[C@H](O)C1)c1ccccc1 [Compound 30] |  | 900 |  |  | 9400 |  |  |
| CN(C(=O)COc1ccc(NC(=N)N)c2ncccc12)[C@H](CN1CC[C@H](O)C1)c1ccccc1 [Compound 40, 2-((8-guanidinoquinolin-5-yl)oxy)-N-((S)-2-((S)-3-hydroxypyrrolidin-1-yl)-1-phenylethyl)-N-methylacetamide] | 1.1 | 0.007 |  |  |  |  |  |
| CN(C(=O)COc1ccc2cc(NS(C)(=O)=O)ccc2n1)[C@H](CN1CC[C@H](O)C1)c1ccccc1 [Compound 2, N-((S)-2-((S)-3-hydroxypyrrolidin-1-yl)-1-phenylethyl)-N-methyl-2-((6-methylsulfonamido)quinolin-2-yloxy)acetamide] | 2590 | 4.93 |  |  |  |  |  |
